The record followed here is patent EP0449009A2, “Use of gallopamil for the preparation of medicaments for the treatment of acute renal failure” (KNOLL AG, priority 1990, dated 1991).

The test has as its system Patienten, die an akutem Nierenversagen erkrankt waren. The experiment in a line: Clinical study of gallopamil infusion in patients with acute renal failure. In kind it is in vivo. As for the experimental part:
Zum Nachweis der Wirksamkeit bei akutem Nierenversagen wurde Gallopamil 8 Patienten, die an akutem Nierenversagen erkrankt waren, über einen Zeitraum von 4 Stunden intrarenal in Dosierungen von 40 bis 160 µg/min kontinuierlich infundiert. Gleichzeitig wurde intravenös ein Diuretikum (Furosemid) in einer Konzentration von 40 µg/min über 24 Stunden verabreicht. Bei 2 weiteren Patienten wurde Gallopamil intravenös über Zeiträume von 3 und 24 Stunden in einer Menge von 40 µg/min infundiert.
In dieser Studie konnte bei 80 % der Patienten der deletäre Verlauf des akuten Nierenversagens gestoppt werden (siehe nachstehende Tabelle).

Setting [1] is: whole study: 8 patients 40 to 160 µg/min intrarenal over 4 h + Furosemid i.v., 2 patients 40 µg/min intravenous.

Take `COc1ccc(CCN(C)CCCC(C#N)(c2cc(OC)c(OC)c(OC)c2)C(C)C)cc1OC` (stereo not drawn) [Gallopamil, 1-(3,4-Dimethoxyphenyl)-3-methylaza-7-cyan-7-(3,4,5-trimethoxyphenyl)-8-methylnonan]: the “Kreatinin-Ausscheidung nach einem Behandlungstag” value (patient with G-6-PD (Glukose-6-phosphatdehydrogenasemangel), treatment begun 2 weeks after onset and after two dialyses, 83 µg/min intrarenal over 4 h + Furosemid 40 µg/min i.v. over 24 h, before treatment 0,8) is listed as 1,2 ml/min; the “Kreatinin-Ausscheidung nach einem Behandlungstag” value (patient with Malaria, treatment begun 2 weeks after onset and after two dialyses, 50 µg/min intrarenal over 4 h + Furosemid 40 µg/min i.v. over 24 h, before treatment 2,2) is listed as 3,7 ml/min; the “Kreatinin-Ausscheidung nach einem Behandlungstag” value (patient with Malaria, 40 µg/min intrarenal over 4 h + Furosemid 40 µg/min i.v. over 24 h, before treatment 5,3) is on record as 14,3 ml/min; the “Kreatinin-Ausscheidung nach einem Behandlungstag” value (patient with Rhabdomyolysis, 40 µg/min intravenous over 3 h, before treatment 8,9) is 3,6 ml/min; the “Kreatinin-Ausscheidung nach einem Behandlungstag” value (patient with Rhabdomyolysis, 80 µg/min intrarenal over 4 h + Furosemid 40 µg/min i.v. over 24 h, before treatment 4,0) is recorded as 5,1 ml/min; the “Kreatinin-Ausscheidung nach einem Behandlungstag” value (patient with Schock, 40 µg/min intravenous over 24 h, before treatment 10,4) is on record as 17,9 ml/min. Moreover, the “Kreatinin-Ausscheidung nach einem Behandlungstag” value (patient with Schock, 83 µg/min intrarenal over 4 h + Furosemid 40 µg/min i.v. over 24 h, before treatment 3,4) is listed as 13,2 ml/min; the “Kreatinin-Ausscheidung nach einem Behandlungstag” value (patient with hypovolenischer Schock, 160 µg/min intrarenal over 4 h + Furosemid 40 µg/min i.v. over 24 h, before treatment 2,3) is reported as 16,1 ml/min; the “Kreatinin-Ausscheidung nach einem Behandlungstag” value (patient with septischer Schock, 83 µg/min intrarenal over 4 h + Furosemid 40 µg/min i.v. over 24 h, before treatment 29,0) is recorded as 48,0 ml/min. Moreover, the “Kreatininkonzentration im Blut nach sieben Behandlungstagen” value reads like this: (patient with G-6-PD (Glukose-6-phosphatdehydrogenasemangel), treatment begun 2 weeks after onset and after two dialyses, 83 µg/min intrarenal over 4 h + Furosemid 40 µg/min i.v. over 24 h, before treatment 14,1) 14,6 mg/dl; (patient with Malaria, treatment begun 2 weeks after onset and after two dialyses, 50 µg/min intrarenal over 4 h + Furosemid 40 µg/min i.v. over 24 h, before treatment 12,7) 5,5 mg/dl; (patient with Malaria, 40 µg/min intrarenal over 4 h + Furosemid 40 µg/min i.v. over 24 h, before treatment 10,4) 3,1 mg/dl; (patient with Rhabdomyolysis, 40 µg/min intravenous over 3 h, before treatment 5,2) 5,9 mg/dl; (patient with Rhabdomyolysis, 80 µg/min intrarenal over 4 h + Furosemid 40 µg/min i.v. over 24 h, before treatment 10,1) 9,3 mg/dl; (patient with Schock, 40 µg/min intravenous over 24 h, before treatment 5,5) 2,9 mg/dl. The “Kreatininkonzentration im Blut nach sieben Behandlungstagen” value by setting is: (patient with Schock, 83 µg/min intrarenal over 4 h + Furosemid 40 µg/min i.v. over 24 h, before treatment 4,7) 1,1 mg/dl; (patient with hypovolenischer Schock, 160 µg/min intrarenal over 4 h + Furosemid 40 µg/min i.v. over 24 h, before treatment 9,6) 2,5 mg/dl; (patient with septischer Schock, 83 µg/min intrarenal over 4 h + Furosemid 40 µg/min i.v. over 24 h, before treatment 10,6) 1,3 mg/dl. Moreover, the “Patienten, bei denen auf eine Dialyse verzichtet werden konnte” value under setting [1] is reported as 90%. For the same compound, under setting [1], the “Patienten, bei denen der deletäre Verlauf des akuten Nierenversagens gestoppt werden konnte” value is given as 80%. In addition, the “Überleben des akuten Nierenversagens” value under setting [1] was “alle Patienten überlebten”.
